Source: ChEMBL document CHEMBL4715808, “Discovery of (1S,2R,3S,4S,5R,6R)-2-Amino-3-[(3,4-difluorophenyl)sulfanylmethyl]-4-hydroxy-bicyclo[3.1.0]hexane-2,6-dicarboxylic Acid Hydrochloride (LY3020371·HCl): A Potent, Metabotropic Glutamate 2/3 Receptor Antagonist with Antidepressant-Like Activity” (J Med Chem, 2016)

How the values were obtained:
[1] = target: T1, Metabotropic glutamate receptor 2 (Homo sapiens, UniProt Q14416)
Description: Antagonist activity at human recombinant mGlu2 receptor stably expressed in golden hamster AV12 cells co-expressing rat EAAT1 assessed as reduction in DCG IV-induced inhibition of forskolin-stimulated cAMP accumulation preincubated for 20 mins followed by incubation with cAMP-d2 conjugate and anti-cAMP cryptate for 1 hr by HTRF assay

[2] = target: T2, Metabotropic glutamate receptor 3 (Homo sapiens, UniProt Q14832); assay: Displacement of [3H]-LY459477 from recombinant human mGlu3 receptor expressed in hamster AV12 cell membranes co-expressing rat EAAT1 incubated for 90 mins by top count scintillation method; design: species or system Cell membrane
T2 sequence (Q14832 whole entry): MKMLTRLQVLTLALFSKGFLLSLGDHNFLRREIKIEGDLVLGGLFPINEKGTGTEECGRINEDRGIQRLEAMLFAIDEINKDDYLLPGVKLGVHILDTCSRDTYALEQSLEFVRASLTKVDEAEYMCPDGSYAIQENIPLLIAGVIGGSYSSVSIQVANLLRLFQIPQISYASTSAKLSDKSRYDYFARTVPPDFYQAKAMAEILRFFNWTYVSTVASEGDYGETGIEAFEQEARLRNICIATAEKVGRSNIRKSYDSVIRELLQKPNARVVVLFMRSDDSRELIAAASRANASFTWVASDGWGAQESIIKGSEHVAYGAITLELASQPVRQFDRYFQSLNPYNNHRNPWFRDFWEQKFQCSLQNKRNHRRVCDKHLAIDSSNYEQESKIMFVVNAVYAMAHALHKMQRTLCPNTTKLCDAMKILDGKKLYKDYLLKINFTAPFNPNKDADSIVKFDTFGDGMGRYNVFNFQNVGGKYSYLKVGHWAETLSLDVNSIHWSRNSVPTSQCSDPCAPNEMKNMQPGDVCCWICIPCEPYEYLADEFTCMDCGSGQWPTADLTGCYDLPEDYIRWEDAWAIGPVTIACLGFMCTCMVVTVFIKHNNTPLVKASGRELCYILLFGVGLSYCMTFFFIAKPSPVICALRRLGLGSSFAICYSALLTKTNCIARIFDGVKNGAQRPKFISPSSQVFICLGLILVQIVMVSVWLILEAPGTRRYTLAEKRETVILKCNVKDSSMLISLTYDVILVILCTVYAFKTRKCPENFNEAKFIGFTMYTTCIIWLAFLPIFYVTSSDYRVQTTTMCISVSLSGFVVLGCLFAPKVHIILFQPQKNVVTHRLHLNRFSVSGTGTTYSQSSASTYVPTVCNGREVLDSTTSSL

[3] = target: T2, Metabotropic glutamate receptor 3; assay: Antagonist activity at human recombinant mGlu3 receptor stably expressed in golden hamster AV12 cells co-expressing rat EAAT1 assessed as reduction in DCG IV-induced inhibition of forskolin-stimulated cAMP accumulation preincubated for 20 mins followed by incubation with cAMP-d2 conjugate and anti-cAMP cryptate for 1 hr by HTRF assay; format: functional, cell-based
[4] = target: T1, Metabotropic glutamate receptor 2; remark: listed apart in the source
Description: Displacement of [3H]-LY459477 from recombinant human mGlu2 receptor expressed in hamster AV12 cell membranes co-expressing rat EAAT1 incubated for 90 mins by top count scintillation method

T1 sequence (Q14416 whole entry): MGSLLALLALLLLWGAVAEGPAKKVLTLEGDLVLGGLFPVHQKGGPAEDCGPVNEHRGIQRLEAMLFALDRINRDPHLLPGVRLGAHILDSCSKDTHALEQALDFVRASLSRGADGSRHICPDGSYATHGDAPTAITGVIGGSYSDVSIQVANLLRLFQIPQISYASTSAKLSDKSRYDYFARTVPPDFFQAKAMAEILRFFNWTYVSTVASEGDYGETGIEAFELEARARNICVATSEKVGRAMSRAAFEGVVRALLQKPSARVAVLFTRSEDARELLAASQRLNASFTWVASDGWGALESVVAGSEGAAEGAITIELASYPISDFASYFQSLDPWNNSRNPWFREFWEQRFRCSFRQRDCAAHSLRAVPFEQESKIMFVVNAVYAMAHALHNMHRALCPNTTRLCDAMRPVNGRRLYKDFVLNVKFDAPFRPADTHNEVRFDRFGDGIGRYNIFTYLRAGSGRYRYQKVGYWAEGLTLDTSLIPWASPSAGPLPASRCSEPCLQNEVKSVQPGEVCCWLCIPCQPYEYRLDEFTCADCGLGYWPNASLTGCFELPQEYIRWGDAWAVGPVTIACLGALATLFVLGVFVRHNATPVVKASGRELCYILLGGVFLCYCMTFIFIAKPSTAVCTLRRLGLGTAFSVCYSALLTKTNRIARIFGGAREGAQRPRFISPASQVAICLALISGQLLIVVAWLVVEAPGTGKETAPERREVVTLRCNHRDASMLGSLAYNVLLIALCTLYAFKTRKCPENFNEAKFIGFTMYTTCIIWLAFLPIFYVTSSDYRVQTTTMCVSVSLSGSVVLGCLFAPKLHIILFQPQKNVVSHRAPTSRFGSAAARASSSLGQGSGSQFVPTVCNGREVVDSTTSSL

Compound | IC50 [1] [nM] | Ki [2] [nM] | IC50 [3] [nM] | Ki [4] [nM]
N[C@]1(C(=O)O)[C@@H]2[C@@H](C(=O)O)[C@@H]2[C@H](O)[C@H]1CSc1ccc(F)cc1 | 20.2 | 6.8 | 41.9 | 10.4
N[C@]1(C(=O)O)[C@@H]2[C@@H](C(=O)O)[C@@H]2[C@H](O)[C@@H]1CSc1ccccc1 | – | 251 | 2410 | –
Cc1cc(SC[C@@H]2[C@@H](O)[C@H]3[C@H](C(=O)O)[C@H]3[C@]2(N)C(=O)O)ccc1F | 17.2 | – | – | 8.9
CC(C)SC[C@@H]1[C@@H](O)[C@H]2[C@H](C(=O)O)[C@H]2[C@]1(N)C(=O)O | 2280 | – | – | 1200
Cc1ccc(SC[C@@H]2[C@@H](O)[C@H]3[C@H](C(=O)O)[C@H]3[C@]2(N)C(=O)O)cc1C | 27.6 | – | – | 14.2
